These are literature values, as cited in patent publication US20230200430A1, “ORAL PRODUCTS WITH HIGH-DENSITY LOAD” (NICOVENTURES TRADING LIMITED, priority 2021, published 2023).

For this series the following is noted: qualitative statement.

Take `CC(/C=C/C=C(C)/C=C/C(=O)O)=C\C=C\C=C(C)\C=C\C=C(C)\C=C\C(=O)O` (stereo in doubt) [norbixin, (2E,4E,6E,8E,10E,12E,14E,16E,18E)-4,8,13,17-tetramethylicosa-2,4,6,8,10,12,14,16,18-nonaenedioic acid]: the “solubility in water / aqueous environment” value is reported as “water soluble”. Consider `C=C(C)[C@@H]1CCC(C)=C[C@H]1c1c(O)cc(CCCCC)cc1O` [CBD, cannabidiol, reference compound], for which the “solubility in water / aqueous environment” value is “insoluble in an aqueous environment”. For `COC(=O)/C=C/C(C)=C\C=C\C(C)=C\C=C\C=C(C)\C=C\C=C(C)\C=C\C(=O)O` [Bixin], the “solubility in water / aqueous environment” value is listed as “insoluble in water”.
